Assay results as given in the NIST ThermoML archive (doi:10.1016/j.jct.2019.01.004).
Numbers after ± are expanded uncertainties.

Details: Liquid, Ebulliometric method (Recirculating still)

| vapor or sublimation pressure (352.62 K) [kPa] | vapor or sublimation pressure (337.68 K) [kPa] | Compound |
| --- | --- | --- |
| 101.3 ± 3.7 | – | CCC(=O)OC [methyl propanoate] |
| – | 101.3 ± 3.7 | CO [methanol] |
